From PMC10054240, “New Inhibitors of Respiratory Syncytial Virus (RSV) Replication Based on Monoterpene-Substituted Arylcoumarins” (Molecules, 2023)
“And” between values parts separate entries of the source, which are not always exact repeats. Equal entries are not always repeated. Where two headings read alike, the source gives them in different places.

Assays:
RSV A strain A2 = test: Antiviral activity against RSV A strain A2 in HEp-2 cells (ELISA virus titer); type: cell-based, respiratory syncytial virus; conditions: for IC50: HEp-2, RSV A, read-out: pIC50 (-lg[IC50]) (converted); for IC50 / pIC50 (-lg[IC50]): from Table 1 values; for pIC50 (-lg[IC50]): RSV A
[1] = Cytotoxicity on non-infected HEp-2 cells, MTT assay; type: cell-based; conditions: human, non-infected HEp-2 cells, CC50 (50% cytotoxic concentration), MTT, 24 h
RSV A2 virus = test: Time-of-addition assay; type: cell-based, respiratory syncytial virus; conditions: 300 μg/mL, RSV A2, titer by ELISA
Description: Compounds 14e and 14b at a concentration of 300 μg/mL were added at different time intervals before, after, or during virus inoculation (Figure 2 and Figure 3). The time of compound addition was counted off from Point 0, i.e., the moment of virus entry into the cell. RSV A2 virus was added to cells at a time conventionally designated as […]; then, cells were kept at a temperature of 40 °C for 1 h. Next, at Point 0, unbound virus was washed off, fresh medium containing compounds at the same concentration was added, and the cells were transferred to a thermostat at 37 °C where they were incubated for 25 h. After this, medium collected from each well was used to make a series of ten-fold dilutions with fresh cell culture. The cells were incubated for 6 days. The viral titer was measured by ELISA.
Compounds were added at different time points before, after, or simultaneously with the introduction of the virus. The time of addition of the compounds was counted from Point 0, i.e., the time of entry of the virus into the cell. During the period (−1)–0, the cells together with the virus were incubated at 40 °C. All other experiments were carried out at 37 °C. RSV virus A […] was added to the cells at a time that was conventionally designated as […], after which the cells were kept for an hour at a temperature of 40 °C. Then, at Point 0, the virus was unbound. […]

HEp-2 cells = test: Cytotoxicity on non-infected HEp-2 cells, MTT assay; type: cell-based; conditions: for CC50: read-out: CC50 (50% cytotoxic concentration), MTT, 24 h
[2] = human respiratory syncytial virus
[3] = human respiratory syncytial virus, HEp-2, read-out: EC50 (50% effective concentration)
[4] = read-out: EC50 (50% effective concentration)
[5] = human respiratory syncytial virus, read-out: EC50 (50% effective concentration), RSV A strain A2, HEp-2 cells

EC50 (RSV A strain A2; [5]) [µM]	SMILES	antiviral activity against RSV A (in words) (RSV A strain A2)	IC50 (RSV A strain A2; [2]) [µM]	EC50 (RSV A strain A2; [3]) [µM]	CC50 at 24 h [1] [µM]	effect on viral titer depending on time of addition (in words) (RSV A2 virus)	SI (selective index) (RSV A strain A2)	pIC50 (-lg[IC50]) (RSV A strain A2)	EC50 (RSV A strain A2; [4]) [µM]	CC50 (HEp-2 cells) [µM]	EC50 (RSV A strain A2; human respiratory syncytial virus, HEp-2, read-out: EC50 (50% effective concentration), RSV A strain A2, HEp-2 cells) [µM]	cytotoxicity (in words) (HEp-2 cells)
	CC(C)=CCC/C(C)=C/COc1ccc2c(-c3ccccc3)cc(=O)oc2c1 [Compound 14a]	moderate antiviral activity	67.6	67.3 ± 9.1	805 ± 97.6							
	CC1(C)C2CC=C(COc3ccc4c(-c5ccccc5)cc(=O)oc4c3)C1C2 (stereo not shown) [Compound 14b]				591 ± 85.2	reduced the viral titer at all time periods, except for prophylactic use 2 h before virus entry into cells	32.8	4.75	18 ± 0.9			
	CC1(C)C2CC=C(COc3ccc4c(-c5ccccc5)cc(=O)oc4c3)C1C2 (stereo not shown) [Compound 14c]	not active					3.5	3.63	234 ± 27.1	813 ± 32.4		
	CC1(C)C2CC=C(CCOc3ccc4c(-c5ccccc5)cc(=O)oc4c3)C1C2 (stereo not shown) [Compound 14d]		83.2	82.5 ± 10.3	657 ± 20.4		7.9					
	CC1(C)[C@H]2CC=C(CCCCOc3ccc4c(-c5ccccc5)cc(=O)oc4c3)[C@@H]1C2 [Compound 14f, 7-(4-((1R,5S)-6,6-Dimethylbicyclo[3.1.1]hept-2-en-2-yl)butoxy)-4-phenyl-2H-chromen-2-one]		112	111 ± 10.5	1270 ± 180		11.4					
	CC(C)=CCC/C(C)=C/COc1ccc2c(-c3ccc(Br)cc3)cc(=O)oc2c1 [Compound 15a]		8.91	8.8 ± 0.7	8.8 ± 0.5		1					
	CC1(C)C2CC=C(COc3ccc4c(-c5ccc(Br)cc5)cc(=O)oc4c3)C1C2 (stereo not shown) [Compound 15b]				46.6 ± 8.6		3	4.82	15.1 ± 1.1			
	CC1(C)C2CC=C(COc3ccc4c(-c5ccc(Br)cc5)cc(=O)oc4c3)C1C2 (stereo not shown) [Compound 15c]						1.9	4.31 and 4.30	48.7 ± 7.6	90.8 ± 11		
	CC1(C)C2CC=C(CCOc3ccc4c(-c5ccc(Br)cc5)cc(=O)oc4c3)C1C2 (stereo not shown) [Compound 15d]		> 20	> 20	17.2 ± 2.6		<0.8	4.70				
	CC1(C)[C@H]2CC=C(CCCOc3ccc4c(-c5ccc(Br)cc5)cc(=O)oc4c3)[C@@H]1C2 [Compound 15e, 4-(4-Bromophenyl)-7-(3-((1R,5S)-6,6-dimethylbicyclo[3.1.1]hept-2-en-2-yl)propoxy)-2H-chromen-2-one]		> 12.6	> 12.5	12.5 ± 1.4		<1	4.90				
	CC1(C)[C@H]2CC=C(CCCCOc3ccc4c(-c5ccc(Br)cc5)cc(=O)oc4c3)[C@@H]1C2 [Compound 15f, 4-(4-Bromophenyl)-7-(4-((1R,5S)-6,6-dimethylbicyclo[3.1.1]hept-2-en-2-yl)butoxy)-2H-chromen-2-one]		9.55	9.5 ± 0.8	91.3 ± 9.2							
	O=c1cc(-c2ccc(Br)cc2)c2ccc(OCc3ccccc3)cc2o1 [Compound 15g]		83.2	84 ± 3	265 ± 29.5		3.2					
	CC(C)=CCC/C(C)=C/COc1ccc2c(-c3ccc(F)cc3)cc(=O)oc2c1 [Compound 16a]		47.9	47.4 ± 8	273 ± 16		5.8					
	CC1(C)C2CC=C(COc3ccc4c(-c5ccc(F)cc5)cc(=O)oc4c3)C1C2 (stereo not shown) [Compound 16b]						2.9	3.99	103 ± 7.1	297 ± 8.5		
	CC1(C)C2CC=C(COc3ccc4c(-c5ccc(F)cc5)cc(=O)oc4c3)C1C2 (stereo not shown) [Compound 16c]						1.4	4.84	14.3 ± 2.9	20.5 ± 4.9		
	CC1(C)[C@H]2CC=C(CCCOc3ccc4c(-c5ccc(F)cc5)cc(=O)oc4c3)[C@@H]1C2 [Compound 16e, 7-(3-((1R,5S)-6,6-Dimethylbicyclo[3.1.1]hept-2-en-2-yl)propoxy)-4-(4-fluorophenyl)-2H-chromen-2-one]		110	110 ± 10.4	996 ± 8.2		9					
	CC1(C)[C@H]2CC=C(CCCCOc3ccc4c(-c5ccc(F)cc5)cc(=O)oc4c3)[C@@H]1C2 [Compound 16f, 7-(4-((1R,5S)-6,6-Dimethylbicyclo[3.1.1]hept-2-en-2-yl)butoxy)-4-(4-fluorophenyl)-2H-chromen-2-one]		9.33	9	109 ± 10.5		11.8		9.2 ± 1.1			
	O=c1cc(-c2ccc(F)cc2)c2ccc(OCc3ccccc3)cc2o1 [Compound 16g, 7-(Benzyloxy)-4-(4-fluorophenyl)-2H-chromen-2-one]		692		655 ± 29.7		<0.9	3.20			> 690	
	COc1ccc(-c2cc(=O)oc3cc(OC/C=C(\C)CCC=C(C)C)ccc23)cc1 [Compound 17a]		58.9	58.3 ± 8.5	339 ± 26.3		5.8	4.20				
	COc1ccc(-c2cc(=O)oc3cc(OCC4=CCC5CC4C5(C)C)ccc23)cc1 (stereo not shown) [Compound 17b]		> 12.6	> 12	12.4 ± 2.8		<1	4.90				
	COc1ccc(-c2cc(=O)oc3cc(OCC4=CCC5CC4C5(C)C)ccc23)cc1 (stereo not shown) [Compound 17c]						<1	< 4.8 and 4.80	> 15	14.7 ± 2.9		
	COc1ccc(-c2cc(=O)oc3cc(OCCC4=CCC5CC4C5(C)C)ccc23)cc1 (stereo not shown) [Compound 17d]		64.6	64.1 ± 5.4	677 ± 22.9		10.6					
35.9 ± 5.7	COc1ccc(-c2cc(=O)oc3cc(OCCCC4=CC[C@H]5C[C@@H]4C5(C)C)ccc23)cc1 [Compound 17e, 7-(3-((1R,5S)-6,6-Dimethylbicyclo[3.1.1]hept-2-en-2-yl)propoxy)-4-(4-methoxyphenyl)-2H-chromen-2-one]				> 100							
	COc1ccc(-c2cc(=O)oc3cc(OCCCCC4=CC[C@H]5C[C@@H]4C5(C)C)ccc23)cc1 [Compound 17f, 7-(4-((1R,5S)-6,6-Dimethylbicyclo[3.1.1]hept-2-en-2-yl)butoxy)-4-(4-methoxyphenyl)-2H-chromen-2-one]		> 12.6	10	117 ± 7			4.97	10.8 ± 1			
	COc1ccc(-c2cc(=O)oc3cc(OCc4ccccc4)ccc23)cc1 [Compound 17g]		> 17	> 17	16.8 ± 3.2		<1	4.80				
	CC1(C)[C@H]2CC=C(CNc3ccc4c(-c5ccccc5)cc(=O)oc4c3)[C@@H]1C2 [Compound 21, 7-(((1R,5S)-6,6-Dimethylbicyclo[3.1.1]hept-2-en-2-yl)methylamino)-4-phenyl-2H-chromen-2-one]		> 12.6	> 13	20.5 ± 1.4			4.90				abrupt increase in cytotoxicity
	CC1(C)[C@H]2CC=C(CCNc3ccc4c(-c5ccccc5)cc(=O)oc4c3)[C@@H]1C2 [Compound 22, 7-(2-((1R,5S)-6,6-Dimethylbicyclo[3.1.1]hept-2-en-2-yl)ethylamino)-4-phenyl-2H-chromen-2-one]		79.4	79.9 ± 7.4	480 ± 18.4		6					
80.1 ± 13.5	NC(=O)c1ncn([C@@H]2O[C@H](CO)[C@@H](O)[C@H]2O)n1 [Ribavirin, reference compound]				> 4000							
